# In ChEMBL document CHEMBL1201862, “PubChem BioAssay data set” (2004):
#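 Five compound concentrations were applied to cells in 96-well plates for 48 hours; endpoints were derived by simple linear interpolation of the resulting dose-response curve. At the GI50, growth is halved.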 Calls of active or inactive are those of the source. Cut-off read from the data, not from the text of the source: active = GI50 up to about 1.1 µM and inactive = higher.
# Columns and labels:
# Assay in all cases: NCI tumour cell line growth inhibition, 48 h
# [1] = test system: UO-31
# [2] = test system: SK-OV-3
# [3] = test system: COLO 205
# [4] = test system: MDA-MB-435
# [5] = test system: HOP-62
# [6] = test system: SF-539
# [7] = test system: SN12C
# [8] = test system: NCI-H23
# [9] = test system: Hs-578T
# [10] = test system: PC-3
# [11] = test system: U-251
# [12] = test system: OVCAR-8
# [13] = test system: M14
# [14] = test system: TK-10
# [15] = test system: HCT-15
# [16] = test system: SF-295
# [17] = test system: DU-145
# [18] = test system: RXF 393
# [19] = test system: UACC-257
# [20] = test system: HL-60
# [21] = test system: MDA-N
# [22] = test system: SW-620
# [23] = test system: A498
# [24] = test system: SK-MEL-5
# [25] = test system: CCRF-CEM
# [26] = test system: 786-0
# [27] = test system: K562
# [28] = test system: Malme-3M
# [29] = test system: NCI-H460
# [30] = test system: LOX IMVI
# [31] = test system: SR
# [32] = test system: NCI/ADR-RES
# [33] = test system: HT-29
# [34] = test system: SF-268
# [35] = test system: EKVX
# [36] = test system: NCI-H522
# [37] = test system: NCI-H226
# [38] = test system: ACHN
# [39] = test system: HCC 2998
# [40] = test system: BT-549
# [41] = test system: SNB-19
# [42] = test system: SNB-75
# [43] = test system: RPMI-8226
# [44] = test system: UACC-62
# [45] = test system: A549
# [46] = test system: HCT-116
# [47] = test system: OVCAR-5
# [48] = test system: OVCAR-3
# [49] = test system: MDA-MB-231
# [50] = test system: CAKI-1
# [51] = test system: KM12
# [52] = test system: IGROV-1
# [53] = test system: SK-MEL-28
# [54] = test system: SK-MEL-2
# [55] = test system: MOLT-4
# [56] = test system: MCF7
# [57] = test system: HOP-92
# [58] = test system: OVCAR-4
# [59] = test system: T47D
smiles,measurement,setting,value
Cc1ccc(C=C(C(=O)O)C(=O)O)o1,GI50,[1],> 100 µM (inactive)
same,GI50,[2],> 100 µM (inactive)
same,GI50,[3],> 100 µM (inactive)
same,GI50,[4],> 100 µM (inactive)
same,GI50,[5],> 100 µM (inactive)
same,GI50,[6],> 100 µM (inactive)
same,GI50,[7],> 100 µM (inactive)
same,GI50,[8],> 100 µM (inactive)
same,GI50,[9],> 100 µM (inactive)
same,GI50,[10],> 100 µM (inactive)
same,GI50,[11],> 100 µM (inactive)
same,GI50,[12],> 100 µM (inactive)
same,GI50,[13],> 100 µM (inactive)
same,GI50,[14],> 100 µM (inactive)
same,GI50,[15],> 100 µM
same,GI50,[16],> 100 µM (inactive)
same,GI50,[17],> 100 µM (inactive)
same,GI50,[18],> 100 µM (inactive)
same,GI50,[19],> 100 µM (inactive)
same,GI50,[20],> 100 µM (inactive)
same,GI50,[21],> 100 µM (inactive)
same,GI50,[22],> 100 µM (inactive)
same,GI50,[23],> 100 µM (inactive)
same,GI50,[24],> 100 µM (inactive)
same,GI50,[25],> 100 µM (inactive)
same,GI50,[26],> 100 µM (inactive)
same,GI50,[27],> 100 µM (inactive)
same,GI50,[28],> 100 µM (inactive)
same,GI50,[29],> 100 µM (inactive)
same,GI50,[30],> 100 µM (inactive)
same,GI50,[31],> 100 µM (inactive)
same,GI50,[32],> 100 µM (inactive)
same,GI50,[33],> 100 µM (inactive)
same,GI50,[34],> 100 µM (inactive)
same,GI50,[35],> 100 µM (inactive)
same,GI50,[36],> 100 µM (inactive)
same,GI50,[37],> 100 µM (inactive)
same,GI50,[38],> 100 µM (inactive)
same,GI50,[39],> 100 µM (inactive)
same,GI50,[40],> 100 µM (inactive)
same,GI50,[41],> 100 µM (inactive)
same,GI50,[42],> 100 µM (inactive)
same,GI50,[43],> 100 µM (inactive)
same,GI50,[44],> 100 µM (inactive)
same,GI50,[45],> 100 µM (inactive)
same,GI50,[46],> 100 µM (inactive)
same,GI50,[47],> 100 µM (inactive)
same,GI50,[48],> 100 µM (inactive)
same,GI50,[49],> 100 µM (inactive)
same,GI50,[50],> 100 µM (inactive)
same,GI50,[51],> 100 µM (inactive)
same,GI50,[52],> 100 µM (inactive)
same,GI50,[53],> 100 µM (inactive)
same,GI50,[54],> 100 µM (inactive)
same,GI50,[55],> 100 µM (inactive)
same,GI50,[56],> 100 µM (inactive)
COc1ccc(/C=C2\C[C@H]3[C@@H]4CC=C5C[C@@H](OC(C)=O)CC[C@]5(C)[C@H]4CC[C@]3(C)\C2=N\O)cc1OC,GI50,[1],4.2 µM (inactive)
same,GI50,[2],68.1 µM (inactive)
same,GI50,[3],8.77 µM (inactive)
same,GI50,[4],20.7 µM (inactive)
same,GI50,[5],31.7 µM (inactive)
same,GI50,[6],31 µM (inactive)
same,GI50,[7],15.4 µM (inactive)
same,GI50,[8],29.2 µM (inactive)
same,GI50,[9],> 100 µM (inactive)
same,GI50,[10],18.8 µM (inactive)
same,GI50,[12],5.71 µM (inactive)
same,GI50,[13],14.7 µM (inactive)
same,GI50,[15],9.44 µM
same,GI50,[16],6.65 µM (inactive)
same,GI50,[17],39.4 µM (inactive)
same,GI50,[18],7.4 µM (inactive)
same,GI50,[19],14.9 µM (inactive)
same,GI50,[20],5.57 µM (inactive)
same,GI50,[21],10.4 µM (inactive)
same,GI50,[22],84.9 µM (inactive)
same,GI50,[23],19.3 µM (inactive)
same,GI50,[24],2.71 µM (inactive)
same,GI50,[25],7.5 µM (inactive)
same,GI50,[26],8.87 µM (inactive)
same,GI50,[27],5.19 µM (inactive)
same,GI50,[28],53 µM (inactive)
same,GI50,[29],7.03 µM (inactive)
same,GI50,[30],13.3 µM (inactive)
same,GI50,[31],9.33 µM (inactive)
same,GI50,[32],53.5 µM (inactive)
same,GI50,[33],5.74 µM (inactive)
same,GI50,[34],> 100 µM (inactive)
same,GI50,[57],3.89 µM (inactive)
same,GI50,[35],3.01 µM (inactive)
same,GI50,[36],21.6 µM (inactive)
same,GI50,[37],9.2 µM (inactive)
same,GI50,[38],8 µM (inactive)
same,GI50,[39],16.2 µM (inactive)
same,GI50,[40],> 100 µM (inactive)
same,GI50,[41],25 µM (inactive)
same,GI50,[42],> 100 µM (inactive)
same,GI50,[43],4.86 µM (inactive)
same,GI50,[58],11.4 µM (inactive)
same,GI50,[44],30.5 µM (inactive)
same,GI50,[45],5.12 µM (inactive)
same,GI50,[46],8.05 µM (inactive)
same,GI50,[47],33.9 µM (inactive)
same,GI50,[48],24.3 µM (inactive)
same,GI50,[50],11.2 µM (inactive)
same,GI50,[51],9.27 µM (inactive)
same,GI50,[52],53.3 µM (inactive)
same,GI50,[53],> 100 µM (inactive)
same,GI50,[59],5.38 µM (inactive)
same,GI50,[54],20.8 µM (inactive)
same,GI50,[55],3.6 µM (inactive)
same,GI50,[56],6.3 µM (inactive)
